Like-named read-outs stand apart in the source and are kept apart here.
Key:
ADRB2 [1] = molecular target: T1, ADRB2 (Homo sapiens, UniProt P07550); type: cell-based; conditions: ADRB2-tTA with low efficiency cleavage site; clone 41 cells
ADRB1 = ADRB1 (Homo sapiens, UniProt P08588); conditions: for inhibition of receptor response by antagonist: FIG. 11F
ADRB2 [2] = molecular target: T1, ADRB2
ADRA2C = molecular target: T2, ADRA2C (Homo sapiens, UniProt P18825)
T2 sequence (P18825 1-462): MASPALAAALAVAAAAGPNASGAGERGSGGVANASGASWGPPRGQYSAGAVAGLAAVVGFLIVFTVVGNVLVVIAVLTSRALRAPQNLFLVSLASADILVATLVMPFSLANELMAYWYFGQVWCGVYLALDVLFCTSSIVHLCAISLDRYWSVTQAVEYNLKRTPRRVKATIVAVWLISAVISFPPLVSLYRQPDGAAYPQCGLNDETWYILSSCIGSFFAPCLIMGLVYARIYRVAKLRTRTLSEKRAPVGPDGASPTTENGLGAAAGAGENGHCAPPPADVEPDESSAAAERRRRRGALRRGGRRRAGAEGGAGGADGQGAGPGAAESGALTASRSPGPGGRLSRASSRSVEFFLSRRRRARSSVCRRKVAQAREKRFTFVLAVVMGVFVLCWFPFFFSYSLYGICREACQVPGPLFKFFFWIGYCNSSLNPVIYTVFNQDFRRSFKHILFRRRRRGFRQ

ADRA2B = molecular target: T3, ADRA2B (Homo sapiens, UniProt P18089); conditions: antagonist experiments, FIGS. 11F to 11J
T3 sequence (P18089 1-450): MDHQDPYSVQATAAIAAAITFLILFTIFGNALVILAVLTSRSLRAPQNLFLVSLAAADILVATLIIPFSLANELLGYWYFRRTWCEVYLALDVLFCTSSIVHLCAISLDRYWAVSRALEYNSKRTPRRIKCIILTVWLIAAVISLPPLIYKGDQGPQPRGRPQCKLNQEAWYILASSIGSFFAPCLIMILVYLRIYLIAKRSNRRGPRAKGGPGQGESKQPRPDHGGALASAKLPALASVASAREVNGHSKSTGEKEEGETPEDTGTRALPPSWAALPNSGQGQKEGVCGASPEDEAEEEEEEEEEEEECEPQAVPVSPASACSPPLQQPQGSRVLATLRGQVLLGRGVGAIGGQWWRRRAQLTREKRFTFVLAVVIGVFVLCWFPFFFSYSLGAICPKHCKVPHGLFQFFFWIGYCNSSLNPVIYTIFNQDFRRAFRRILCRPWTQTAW

ADRA2A = molecular target: T4, ADRA2A (Homo sapiens, UniProt P08913); conditions: antagonist experiments, FIGS. 11F to 11J
T4 sequence (P08913 1-465): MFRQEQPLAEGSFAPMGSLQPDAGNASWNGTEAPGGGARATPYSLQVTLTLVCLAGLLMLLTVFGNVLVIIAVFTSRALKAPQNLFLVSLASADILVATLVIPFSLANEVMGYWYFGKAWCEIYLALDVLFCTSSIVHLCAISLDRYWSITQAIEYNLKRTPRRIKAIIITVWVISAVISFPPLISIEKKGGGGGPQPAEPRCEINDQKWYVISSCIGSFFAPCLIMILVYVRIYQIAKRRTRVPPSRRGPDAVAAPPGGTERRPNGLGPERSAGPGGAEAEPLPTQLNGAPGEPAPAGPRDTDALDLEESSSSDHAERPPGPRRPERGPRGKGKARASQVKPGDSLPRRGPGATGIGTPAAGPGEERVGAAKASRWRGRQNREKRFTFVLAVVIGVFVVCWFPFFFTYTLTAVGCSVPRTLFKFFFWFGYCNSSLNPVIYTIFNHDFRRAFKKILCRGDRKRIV

DRD2 [3] = molecular target: DRD2 (Homo sapiens, UniProt P14416+P30550); conditions: μM dopamine; DRD2-GRPR 42aa Tail-tTA, low efficiency cleavage site
DRD2 [4] = molecular target: T5, DRD2 (Homo sapiens, UniProt P14416); conditions: 10 μM; DRD2-AVPR2 Tail-tTA, low efficiency cleavage site
ADRB2 [5] = molecular target: T1, ADRB2; conditions: 1 μM each agonist; mixed clone 41 and clone 1H10 cells; about 24 hours
[6] = molecular target: dopamine 2 receptor (DRD2) (Homo sapiens, UniProt P14416); conditions: 10 μM, medium efficiency cleavage site
Sequence of dopamine 2 receptor (DRD2) (P14416 whole entry): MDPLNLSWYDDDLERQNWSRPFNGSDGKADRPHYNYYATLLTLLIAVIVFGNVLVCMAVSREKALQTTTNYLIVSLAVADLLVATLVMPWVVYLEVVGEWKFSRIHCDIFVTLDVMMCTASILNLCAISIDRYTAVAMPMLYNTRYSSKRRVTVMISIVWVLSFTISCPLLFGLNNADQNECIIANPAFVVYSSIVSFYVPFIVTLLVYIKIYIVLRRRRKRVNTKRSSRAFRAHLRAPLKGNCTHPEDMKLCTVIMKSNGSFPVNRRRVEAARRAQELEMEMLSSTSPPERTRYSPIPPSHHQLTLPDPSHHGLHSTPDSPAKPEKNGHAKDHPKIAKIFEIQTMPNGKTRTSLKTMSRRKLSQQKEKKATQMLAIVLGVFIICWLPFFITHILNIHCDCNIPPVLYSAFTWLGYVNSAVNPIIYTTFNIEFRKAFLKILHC

DRD2 [7] = molecular target: T5, DRD2; conditions: 1 μM each agonist; mixed clone 41 and clone 1H10 cells; about 24 hours
ADRA1A = ADRA1A (Homo sapiens, UniProt P35348); conditions: 10 μM, low efficiency cleavage site
[8] = molecular target: serotonin receptor 1a (HTR1A) (Homo sapiens, UniProt P08908); type: cell-based; conditions: 10 μM; low efficiency cleavage site
Excerpt: A similar set of constructs were made to establish an assay for the G protein coupled serotonin receptor 1a (HTR1A).

[9] = molecular target: DRD2-GRPR 42aa Tail-tTA fusion construct containing the low efficiency cleavage site (UniProt P14416); assay: cell-based or functional assay
Sequence of DRD2-GRPR 42aa Tail-tTA fusion construct containing the low efficiency cleavage site (P14416 other isoform, or with tags, fused parts or gaps): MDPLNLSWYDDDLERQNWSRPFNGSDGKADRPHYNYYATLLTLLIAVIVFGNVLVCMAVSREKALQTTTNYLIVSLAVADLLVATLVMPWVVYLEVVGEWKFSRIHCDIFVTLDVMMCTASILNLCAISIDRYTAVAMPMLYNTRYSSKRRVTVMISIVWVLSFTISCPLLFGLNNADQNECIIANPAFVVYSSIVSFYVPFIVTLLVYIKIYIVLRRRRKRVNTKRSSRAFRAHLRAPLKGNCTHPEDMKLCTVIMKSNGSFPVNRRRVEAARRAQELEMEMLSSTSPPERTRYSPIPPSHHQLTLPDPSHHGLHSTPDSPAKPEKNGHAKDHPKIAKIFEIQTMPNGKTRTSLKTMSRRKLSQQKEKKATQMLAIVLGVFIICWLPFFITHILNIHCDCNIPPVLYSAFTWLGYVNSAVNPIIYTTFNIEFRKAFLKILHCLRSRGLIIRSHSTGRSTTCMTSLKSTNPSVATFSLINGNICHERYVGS

[10] = molecular target: T6, human Type I Interferon Receptor (Homo sapiens, UniProt P17181+P48551); assay: IFNAR1-tTA / IFNAR2.2-TEV luciferase reporter assay in HTL5B8.1 cells; type: cell-based; conditions: 5000 U/ml, 18-20 hours
T6 sequence (P17181 28-557): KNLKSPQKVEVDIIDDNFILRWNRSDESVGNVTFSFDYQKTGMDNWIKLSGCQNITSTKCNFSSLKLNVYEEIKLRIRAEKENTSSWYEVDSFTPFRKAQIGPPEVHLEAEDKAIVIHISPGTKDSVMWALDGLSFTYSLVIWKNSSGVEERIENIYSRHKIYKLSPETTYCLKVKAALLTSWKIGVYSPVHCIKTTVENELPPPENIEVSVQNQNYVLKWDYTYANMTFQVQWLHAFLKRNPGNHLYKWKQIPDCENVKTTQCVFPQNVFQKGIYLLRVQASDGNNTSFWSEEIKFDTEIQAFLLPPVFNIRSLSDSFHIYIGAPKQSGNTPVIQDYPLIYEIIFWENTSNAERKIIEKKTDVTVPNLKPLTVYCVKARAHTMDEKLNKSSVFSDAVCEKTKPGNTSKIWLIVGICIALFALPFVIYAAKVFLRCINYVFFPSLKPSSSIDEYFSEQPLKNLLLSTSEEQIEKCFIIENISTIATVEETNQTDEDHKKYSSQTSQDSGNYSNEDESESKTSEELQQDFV
T6 sequence (P48551 27-515): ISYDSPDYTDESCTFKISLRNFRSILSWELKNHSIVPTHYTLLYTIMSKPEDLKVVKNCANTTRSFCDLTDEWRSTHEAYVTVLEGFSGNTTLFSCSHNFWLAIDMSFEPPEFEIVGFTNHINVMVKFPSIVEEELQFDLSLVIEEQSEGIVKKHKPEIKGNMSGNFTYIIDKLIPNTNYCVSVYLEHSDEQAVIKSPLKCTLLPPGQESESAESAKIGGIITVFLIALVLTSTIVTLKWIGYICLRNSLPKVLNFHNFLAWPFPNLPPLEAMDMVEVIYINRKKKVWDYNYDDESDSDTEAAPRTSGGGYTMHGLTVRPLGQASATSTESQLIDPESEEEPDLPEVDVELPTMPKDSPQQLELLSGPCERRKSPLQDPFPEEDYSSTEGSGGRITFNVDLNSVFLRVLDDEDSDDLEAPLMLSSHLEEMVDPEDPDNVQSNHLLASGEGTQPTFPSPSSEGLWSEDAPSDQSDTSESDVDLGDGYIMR

[11] = molecular target: T6, human Type I Interferon Receptor; assay: IFNAR1-GAL4-NF-κB / IFNAR2.2-TEV luciferase reporter assay in CHO-K1 cells; type: cell-based; parameters: expressed in transfected cells; host or cells: CHO-K1; CMV-STAT1, CMV-STAT2 and pFR-Luc co-transfected
[12] = molecular target: chemokine (C-C motif) receptor 5 (CCR5) (Homo sapiens, UniProt P51681); assay: CCR5-tTA reporter assay in clone 34 cells; type: cell-based; conditions: 1 μg/ml; low efficiency cleavage site
Excerpt: α Constructs were also made to establish an assay for the G protein coupled chemokine (C—C motif) receptor 5 (CCR5). The CCR5 coding region (Genbank Accession Number: NM_000579) (SEQ ID NO: 32) was modified to place Not I site at the 5′ end and replace the stop codon with a BamHI site using PCR with the primers
The first modified coding region was cut with ClaI and BamHI and the second was cut with BsaI and ClaI. Both fragments were ligated into the AVPR2-tTA constructs described supra, which had been cut with EcoRI and BamHI. This replaced the entire coding sequence of AVPR2 with the coding sequence of CCR5.
Assays were carried out using 1 μg/ml “Regulated on Activation, Normal T-Cell Expressed and Secreted” (RANTES), a known agonist for CCR5.

[13] = molecular target: CCR5-tTA fusion construct containing the low efficiency cleavage site (UniProt P51681); assay: cell-based or functional assay
Sequence of CCR5-tTA fusion construct containing the low efficiency cleavage site (P51681 whole entry, the tested form may be a part): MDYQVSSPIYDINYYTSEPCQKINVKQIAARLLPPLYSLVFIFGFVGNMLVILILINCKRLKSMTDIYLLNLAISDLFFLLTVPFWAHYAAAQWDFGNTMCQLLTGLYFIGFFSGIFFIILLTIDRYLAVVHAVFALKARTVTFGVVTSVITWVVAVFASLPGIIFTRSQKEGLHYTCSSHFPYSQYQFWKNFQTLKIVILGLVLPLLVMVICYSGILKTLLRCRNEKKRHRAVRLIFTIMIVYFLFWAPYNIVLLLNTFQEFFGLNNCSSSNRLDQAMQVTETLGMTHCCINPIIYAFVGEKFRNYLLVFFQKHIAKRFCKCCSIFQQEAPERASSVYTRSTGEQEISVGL

[14] = molecular target: EGFR-TEV-NIa-Pro cleavage (Leu)-tTA (human) (UniProt P00533); assay: cell-based or functional assay
[15] = molecular target: epidermal growth factor receptor (EGFR) (Homo sapiens, UniProt P00533); assay: EGFR-tTA / PLC Gamma1-TEV luciferase reporter assay in HTL5B8.1 cells; type: cell-based; conditions: 100 ng/ml; six hours
[16] = molecular target: human Type I Interferon Receptor (IFNAR1-TEV-NIa-Pro cleavage (L)-tTA with IFNAR2.2-TEV, in HTL5B8.1 cells) (human; tobacco etch virus) (UniProt P17181); assay: cell-based or functional assay

Sequence of ADRB1 (P08588 whole entry): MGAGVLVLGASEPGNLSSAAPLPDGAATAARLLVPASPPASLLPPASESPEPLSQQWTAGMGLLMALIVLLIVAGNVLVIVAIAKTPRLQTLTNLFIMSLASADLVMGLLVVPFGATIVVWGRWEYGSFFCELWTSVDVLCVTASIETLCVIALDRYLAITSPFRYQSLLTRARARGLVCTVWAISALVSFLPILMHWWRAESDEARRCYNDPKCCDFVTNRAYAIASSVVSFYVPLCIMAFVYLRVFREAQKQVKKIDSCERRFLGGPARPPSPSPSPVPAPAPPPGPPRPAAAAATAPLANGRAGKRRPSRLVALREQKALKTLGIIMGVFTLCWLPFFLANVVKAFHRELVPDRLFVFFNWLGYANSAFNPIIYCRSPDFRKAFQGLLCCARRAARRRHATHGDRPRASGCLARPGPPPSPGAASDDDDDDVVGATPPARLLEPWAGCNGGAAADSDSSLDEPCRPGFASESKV

Question: For Nc1ncnc2c1ncn2[C@@H]1O[C@H](COP(=O)(O)OP(=O)(O)OP(=O)(O)O)[C@@H](O)[C@H]1O [ATP], which “induction of reporter gene activity by an agonist of other, endogenous GPCRs (P2Y1, P2Y2)” value (ADRB2 [1]) is on record?
Answer: Stimulation of another GPCR pathway was irrelevant

Question: How did the “agonist effect on the receptor” value (ADRB1; any concentration used, FIG. 11A) turn out when Brc1c(NC2=NCCN2)ccc2nccnc12 [UK14,304] was run?
Answer: no effect

Question: What about the “agonist effect on the receptor” value (ADRB2 [2]; any concentration used, FIG. 11B) of the same compound?
Answer: no effect

Question: What about the “agonist response, UK14,304 compared with isoproterenol” value (ADRA2C; varying concentrations of agonist) of the same compound?
Answer: respond to much lower concentration of UK14,304 than isoproterenol

Question: For C=CCc1ccccc1OCC(O)CNC(C)C (centres unmarked) [alprenolol], which “inhibition of receptor response by antagonist” value (from here on “inhibition of receptor response”) (ADRA2B) is on record?
Answer: only a modest inhibitory effect at the highest concentrations tested

Question: What about the “inhibition of receptor response” value (ADRB1) of the same compound?
Answer: markedly inhibited

Question: And the “inhibition of receptor response” value (ADRA2A)?
Answer: only a modest inhibitory effect at the highest concentrations tested

Question: And the “inhibition of receptor response” value (ADRA2C; antagonist experiments, FIGS. 11F to 11J)?
Answer: only a modest inhibitory effect at the highest concentrations tested

Question: What does the source list for Cl.NCCc1ccc(O)c(O)c1 [dopamine, dopamine HCl]?
Answer: maximal response, increase in reporter gene activity (DRD2 [3]): approximately 30 fold; maximal response, induction of reporter gene expression over the background (DRD2 [4]): approximately 60 fold; induction of beta-galactosidase reporter gene activity (ADRB2 [5]): remained unchanged; maximal response, induction of reporter gene expression over the background ([6]; ARRB1-TEV-NIa protease fusion): 2.1 fold; maximal response, induction of reporter gene expression over the background ([6]; ARRB2-TEV-NIa protease fusion): 2.7 fold; induction of luciferase activity (DRD2 [7]): 3.5 fold

Question: How did the “maximal response, induction of reporter gene expression over the background” value (ADRA1A; ADRA1A-GRPR 23aa Tail-tTA) turn out when CNC[C@H](O)c1ccc(O)c(O)c1 [epinephrine] was run?
Answer: approximately 102 fold

Question: What about the “maximal response, increase in reporter gene activity” value (ADRA1A; ADRA1A-GRPR 42aa Tail-tTA) of the same compound?
Answer: approximately 14 fold

Question: How did the “maximal response, induction of reporter gene expression over background level” value [8] turn out when NCCc1c[nH]c2ccc(O)cc12 [serotonin] was run?
Answer: 4.6 fold

Question: COC(=O)[C@@H]1[C@H]2C[C@H]3c4[nH]c5ccccc5c4CCN3C[C@@H]2CC[C@@H]1O [yohimbine] was tested. Which “inhibition of receptor response” value (ADRB1) did it give?
Answer: no effect

Question: What about the “inhibition of receptor response” value (ADRB2 [2]; FIG. 11G) of the same compound?
Answer: inhibition at only the very highest concentrations tested

Question: How did the fold increase in reporter gene activity (luciferase), dopamine [9] turn out when “ARRB2-TEV-NIa protease fusion (from UniProt P32121 1-409)” was run?
Answer: 30 fold

Question: IFN-α was tested. Which “increase in reporter gene activity” value [10] did it give?
Answer: 15 fold

Question: And the “increase in reporter gene activity” value ([11]; 5000 U/ml, 6 hours, CHO-K1 cells with reporter, IFNAR and STAT constructs)?
Answer: 3 fold

Question: And the “effect on reporter gene activity” value ([11]; CHO-K1 cells transfected with the reporter and control plasmids)?
Answer: no effect

Question: Which “maximal response, induction of reporter gene expression over the background” value [12] does the source give for “RANTES: Regulated on Activation, Normal T-Cell Expressed and Secreted, a known agonist for CCR5” here?
Answer: approximately 40 fold

Question: For “Regulated on Activation, Normal T-Cell Expressed and Secreted (RANTES) (from UniProt P13501 24-91) (ligand)”, which maximal fold induction of reporter gene expression over the background, 1 µg/ml RANTES [13] is on record?
Answer: 40 fold

Question: How did the fold increase of luciferase reporter gene activity, 100 ng/ml human Transforming Growth Factor-Alpha [14] turn out when “human Transforming Growth Factor-Alpha (from UniProt P01135 40-89) (ligand)” was run?
Answer: 18.3 fold

Question: With “human Transforming Growth Factor—Alpha: human Transforming Growth Factor-Alpha, EGFR agonist” as the compound, how does the “increase of luciferase reporter gene activity” value [15] read?
Answer: 18.3 fold

Question: With human interferon-alpha (ligand) as the compound, how does the fold increase in reporter gene activity (luciferase), 5000 U/ml IFN-α [16] read?
Answer: 15 fold

Question: “human interferon-beta (from UniProt P01574 22-187) (ligand)” was tested. Which fold increase in reporter gene activity (luciferase), 5000 U/ml IFN-β [16] did it give?
Answer: 10 fold

— patent US20080274913A1, “Multiplex Array Useful for Assaying Protein-Protein Interaction” (priority 2005, published 2008)
